Patent US20030068615A1, “Polypeptides that bind HIV gp120 and related nucleic acids, antibodies, compositions, and methods of use” (priority 1999, published 2003)
Read-outs that look alike come from different tables or passages of the source.

Biological target: HIV-1LAI envelope gp120 (Human immunodeficiency virus type 1 group M subtype B, UniProt P03377)
Assay type: binding
Details: for Counts per 20′ Average-background: CCR5 18-mer scan, radiolabeled HIV-1LAI gp120; for Relative % of Control: mean of two syntheses and binding experiments ± average deviation, wild-type = 100%; for number of radioactive decays (counts) counted: human CD4 21-mer scan, empty control 2075
[1] = STRL33 18-mer scan, background subtracted, first of two count columns
[2] = STRL33 18-mer scan, background subtracted, second of two count columns
[3] = CXCR4 18-mer scan, background subtracted, empty control 0
[4] = CXCR4 18-mer scan, empty control 412
[5] = Panel E, 9-mers and 12-mers of CD4, empty control 571
[6] = Panel C, 15-mers and 18-mers of CD4, empty control 556
[7] = Panel B, 15-mers and 18-mers of CD4, empty control 575
[8] = Panel A, 21-mers of CD4, empty control 515 and 617
[9] = Panel D, 9-mers and 12-mers of CD4, empty control […]

Sequence: KLVKDIGCLPYLGVSHQW [STRL33 segment 301-318]
- radioactive counts recorded in twenty minutes [1]: −2.5 counts
- radioactive counts recorded in twenty minutes [2]: 27.5 counts

Sequence: TLLHAGGFQKHRSLKIIF
- radioactive counts recorded in twenty minutes [1]: 1041.5 counts
- radioactive counts recorded in twenty minutes [2]: 999.5 counts

Sequence: ENTVHKWISITEALAFFH [CXCR4 segment 277-294]
- radioactive counts recorded in twenty minutes [3]: 315 counts
- radioactive counts recorded in twenty minutes [4]: 727 counts

Sequence: TIMVTEAIAYLRACLNPV [STRL33 segment 269-286]
- radioactive counts recorded in twenty minutes [1]: 140.5 counts
- radioactive counts recorded in twenty minutes [2]: 272.5 counts

Sequence: SCYCIIISKLSHSKGHQK
- radioactive counts recorded in twenty minutes [3]: 259 counts
- radioactive counts recorded in twenty minutes [4]: 671 counts

Sequence: GFSSFNDSSQEEEQAFLQ
- Binding Results For Window Length (counts bound-background), 9 (STRL33 amino terminus, 9-mer starting at the first residue of the printed sequence, background subtracted): 171 counts
- Binding Results For Window Length (counts bound-background), 12 (STRL33 amino terminus, 12-mer starting at the first residue of the printed sequence, background subtracted): 480 counts
- Binding Results For Window Length (counts bound-background), 15 (STRL33 amino terminus, 15-mer starting at the first residue of the printed sequence, background subtracted): 270 counts
- Binding Results For Window Length (counts bound-background), 18 (STRL33 amino terminus, 18-mer starting at the first residue of the printed sequence, background subtracted): 1639 counts

Sequence: VKQIAARLLPPLYSLVFI [CCR5 segment 25-42]
- Counts per 20′ Average-background (background subtracted): 18 counts per 20′

Sequence: FSFPLAFTVEKL
- COUNTS of radiolabeled gp120 retained [5]: 573 counts

Sequence: CTVLQNQKKVEFKID
- COUNTS of radiolabeled gp120 retained [6]: 608 counts

Sequence: SLKILSKGKRGGHSSVST [CXCR4 segment 325-342]
- radioactive counts recorded in twenty minutes [3]: 285 counts
- radioactive counts recorded in twenty minutes [4]: 697 counts

Sequence: QKKVEFKIDIVV
- COUNTS of radiolabeled gp120 retained [5]: 595 counts

Sequence: FPLIIKNLKIEDSDTYIC
- COUNTS of radiolabeled gp120 retained [7]: 509 counts

Sequence: ALKTTVILILAFFACWLP [CXCR4 segment 237-254]
- radioactive counts recorded in twenty minutes [3]: 261 counts
- radioactive counts recorded in twenty minutes [4]: 673 counts

Sequence: KEGEQVEFSFPLAFTVEK
- COUNTS of radiolabeled gp120 retained [6]: 3117 counts

Sequence: FQKASSIVYKKEGEQ
- COUNTS of radiolabeled gp120 retained [6]: 637 counts

Sequence: VEFKIDIVVLAFQKASSIVYK
- COUNTS of radiolabeled gp120 retained [8]: 725 counts

Sequence: TANSDTHLL
- COUNTS of radiolabeled gp120 retained [9]: 554 counts

Sequence: GSGDYDSMKEPCFREENA [CXCR4 segment 17-34]
- radioactive counts recorded in twenty minutes [3]: −28 counts
- radioactive counts recorded in twenty minutes [4]: 384 counts

Sequence: EGEQVEFSFPLAFTV
- COUNTS of radiolabeled gp120 retained [6]: 3270 counts

Sequence: MEGISIYTSDNYTEEMGS
- radioactive counts recorded in twenty minutes [3]: 2591 counts
- radioactive counts recorded in twenty minutes [4]: 3003 counts
- Relative % of Control (CXCR4 (1-18) alanine variants): 100%

Sequence: LVMGYQKKLRSMTDKYRL [CXCR4 segment 61-78]
- radioactive counts recorded in twenty minutes [3]: 105 counts
- radioactive counts recorded in twenty minutes [4]: 517 counts

Sequence: PLIIKNLKIEDSDTYICE
- COUNTS of radiolabeled gp120 retained [7]: 624 counts

Sequence: SIVYKKEGEQVEFSFPLAFTV
- COUNTS of radiolabeled gp120 retained [8]: 8165 counts

Sequence: GLTANSDTHLLQ
- COUNTS of radiolabeled gp120 retained [9]: 574 counts

Sequence: MDYQVSSAIYDINYYTSE
- Relative % of Control (CCR5 (1-18) alanine variants): 157 ± 2%

Sequence: MEGISIYTSDNYTEEMAS
- Relative % of Control (CXCR4 (1-18) alanine variants): 68 ± 8%

Sequence: LLTIDRYLAVVHAVFALK
- Counts per 20′ Average-background (background subtracted): 31 counts per 20′

Sequence: SFHYTIMVTEAIAYLRAC [STRL33 segment 265-282]
- radioactive counts recorded in twenty minutes [1]: 761.5 counts
- radioactive counts recorded in twenty minutes [2]: 1033.5 counts

Sequence: GELWWQAERASSSKSWITFDL [human CD4 236-256]
- number of radioactive decays (counts) counted: 2730 counts

Sequence: YAFVGEKFRNYLLVFFQK [CCR5 segment 297-]
- Counts per 20′ Average-background (background subtracted): 596 counts per 20′

Sequence: AARLLPPLYSLVFIFGFV [CCR5 segment 29-46]
- Counts per 20′ Average-background (background subtracted): 33 counts per 20′

Sequence: MEGIAIYTSDNYTEEMGS [CXCR4 (1-18) variant S5A]
- Relative % of Control (CXCR4 (1-18) alanine variants): 133 ± 5%

Sequence: QKEEVQLLVFGL
- COUNTS of radiolabeled gp120 retained [9]: 1785 counts

Sequence: QKASSIVYKKEGEQV
- COUNTS of radiolabeled gp120 retained [6]: 519 counts

Sequence: KRHRAVRLIFTIMIVYFL [CCR5 segment 229-]
- Counts per 20′ Average-background (background subtracted): 36 counts per 20′

Sequence: EDQKEEVQLLVFGLTANS
- COUNTS of radiolabeled gp120 retained [7]: 3416 counts

Sequence: PKLMLSLKLENKEAKVSKREK [human CD4 336-356]
- number of radioactive decays (counts) counted: 1656 counts

Sequence: VLAFQKASS
- COUNTS of radiolabeled gp120 retained [5]: 466 counts

Sequence: QAERASSSKSWITFDLINKEV [human CD4 241-261]
- number of radioactive decays (counts) counted: 2588 counts

Sequence: CKCCSIFQQEAPERASSV [CCR5 segment 321-]
- Counts per 20′ Average-background (background subtracted): 53 counts per 20′

Sequence: SDTHLLQGQSLTLTL
- COUNTS of radiolabeled gp120 retained [7]: 747 counts

Sequence: DIVVLAFQKASSIVYKKEGEQ
- COUNTS of radiolabeled gp120 retained [8]: 788 counts

Sequence: EQVEFSFPLAFTVEKLTGSGE
- COUNTS of radiolabeled gp120 retained [8]: 765 counts
